Measurements published in patent publication US8916164B2, “Methods of enhancing adjuvaticity of vaccine compositions” (ABIVAX, priority 2007, dated 2014).
“Also recorded” adds a separate entry of the source.

Columns and labels:
[1] = tested on: NKT cells; test: Expansion of NKT cells in culture of peripheral blood lymphocytes (PBL), flow cytometry on day 7; assay type: cell-based, human; conditions: for percentage of NKT cells in the CD3+ population: PBL of two healthy donors, 10 ng/ml, 100 ng/ml or 1 μg/ml, rhIL-2, day 7 (FIG. 1)
Experimental: PBLs were derived from two healthy donors and grown in RPMI cell culture media with 5% AB serum. Cells were plated on 12-well plates at 2×10^6 PBL/well/2 ml. Wells were treated with negative controls (0.05% Tween20 and 1% DMSO in PBS or 0.05% Tween20 and 10% DMSO in PBS) or the test adjuvants (αGalCer, PBS-20, PBS-25, or PBS-57) at a final concentration of 10 ng/ml, 100 ng/ml or 1 μg/ml. The chemical structures for control compounds αGalCer, PBS-20 and PBS25 are shown below:
All cultures were supplemented with recombinant human IL2 (rhIL-2) to obtain final concentration of 100 UI/ml by day 1. All cells were cultured for 10 days at 37° C. under 5% CO2. On day 7, half the culture medium (1 ml) was removed for NKT analysis. Percentage of NKT cells in the CD3+ population was detected by flow cytometry using fluorescently labeled CD1 tetramers or fluorescently labeled antibodies (anti-CD3, anti-Vβ11, and anti NKT). The NKT population was identified by flow cytometry as the Vβ11+, Tetramer+ and TCRαβ+ population. NKT cell percentage was calculated in each sample by subtracting the Vβ11+ PBS -57-tetramer+ TCRαβ+ from the Vβ11+ empty-tetramer+TCRαβ+.
Peripheral blood lymphocytes were derived from two healthy donors and cultured in RPMI with 5% AB serum. Cells are plated in a 12-well plate with 2×10^6 cells per well per 2 ml media. One well received carrier (0.05% Tween20 and 1% DMSO in PBS) as a negative control, and test wells received αGalCer, PBS-25, PBS-57, or PBS-83 at final concentrations of 1 ng/ml, 10 ng/ml and 100 ng/ml. The structure of PBS-83 is shown below:
All cultures were supplemented with rhIL-2 to obtain a final concentration of 100 UI/ml by day 1, and cultured for 7 days at 37° C. under 5% CO2 conditions. At day 7, the percentage NKT cells was detected by flow cytometry.

[2] = tested on: CD11c+CD8α− and CD11c+CD8α+ dendritic cells; test: Dendritic cell subsets and maturation (CD40, CD80, CD86) in splenocytes of mice 24 hours after intravenous administration; assay type: in vivo, C57B1/6J mice; conditions: for decrease of both subsets of DCs (CD11c+CD8α− and CD11c+CD8α+) compared to the control: splenocytes; for percentage of CD40+, CD80+ and CD86+ expressing cells in both the CD11c+CD8α− and CD11c+CD8α+ populations: splenocytes (FIGS. 5A-5F)
Experimental: (§1) To test for adjuvant activity of PBS57 in vivo, mice were injected with test compounds and assayed for cell activation and expansion at 24 hours. Four groups of five C57B1/6J mice were each intravenously administered phosphate buffered saline (PBS) with carrier (DMSO alone), 0.97 μg of αGalCer, 1.3 μg of PBS57, or 0.97 μg of PBS83 in a total of 100 μl PBS. 24 hours after administration of the test compound, the mice were sacrificed and blood samples and splenocytes were isolated by standard methods. Percentage of NKT cells in the spleen was evaluated by flow cytometry with staining using anti-TCRαβ-FITC and PE-labeled CD1d-tetramer loaded with PBS-57 (PBS57-tetramer) or without lipid (empty-tetramer). […] The percentage of NKT cells was determined by subtracting the percentage of PBS57-tetramer+ cells from the percentage of empty-tetramer+ cells in the TCRαβ population.
Dendritic cells (DCs) were detected in the splenocytes by flow cytometry by staining with anti-CD11c R-PE (BD Pharmingen) and anti-CD8α FITC (Beckman Coulter). Two subsets of dendritic cells, CD11c+CD8α− and CD11c+CD8α+ populations, were analyzed further. […] To determine if administration of glycolipid induced maturation of the two subsets of dendritic cells, the cells were stained with anti-CD40 Biotin/Stepta APC (BD Bioscience), anti-CD80 Biotin (BD Pharmingen)/Stepta APC (BD Bioscience) and anti-CD86 Biotin (BD Pharmingen)/Stepta APC (BD Bioscience) antibodies and analyzed by flow cytometry. FIGS. 5A and 5B show the percentage of CD40 positive cells in both the CD11c+CD8α− and CD11c+CD8α+ cells, respectively. […] Horizontal lines represent the averages.

[3] = tested on: TCRαβ cells and NKT cells in the spleen; test: TCRαβ and NKT cell populations in the spleen of mice 24 hours after intravenous administration; assay type: in vivo, C57B1/6J mice; conditions: 0.97 μg αGalCer or 1.3 μg PBS57, 24 hours; for percentage of TCRαβ cells in the spleen: compared with PBS and carrier control (FIG. 4A); for percentage of NKT cells within the TCRαβ population in the spleen: relative to control (FIG. 4B)
Experimental: as §1

[4] = tested on: Ova-specific target cells; test: In vivo specific cytotoxic T cell (CD8+) response: specific lysis of CFSE-labeled SIINFEKL-loaded target cells in immunized mice; parameters: species or system C57/B1/6J CD45.2 female mice; conditions: for specific lysis of Ova-specific target cells in the blood, IM versus IV: 400 μg Ova and 1 μg adjuvant in 50 μl PBS, IM or IV, readout day 11 (FIG. 13); for specific lysis of Ova-specific target cells in the blood, intramuscular immunization: IM hind left leg, 400 μg Ova with 1 μg to 10 pg adjuvant, readout day 11 (FIG. 11, FIG. 12); for specific lysis of Ova-specific target cells in the blood, intravenous immunization: 50 μg Ova with varying doses of adjuvant, readout day 11 (FIG. 8, FIG. 9)
[5] = tested on: NKT cells; test: Increase in NKT cells (day 7 / day 0) in PBL/PBMC cultures from healthy donors; assay type: cell-based; conditions: PBL cultures from human volunteers (FIG. 3)
Experimental: NKT staining was performed on a panel of fourteen healthy donor peripheral blood lymphocytes (PBL) or peripheral blood […] (PBMC) samples. PBLs were isolated from 12 subjects, and PBMCs were isolated from 2 subjects. Each isolated cell sample was split into two samples. The first sample from each donor was stained with 10 μl anti-Vβ11 FITC (Beckman Coulter), 10 μl anti-TCRαβ-PC5 (Beckman Coulter), and 2 μl PE-labeled PBS-57-CD1d-tetramer. The second sample from each donor was stained with 10 μl Vβ11, 10 μl anti-TCRαβ-FITC, and 2 μl PE-labeled empty-CD1d-tetramer.
To determine a percentage increase in NKT cells, the number of NKT cells on day 7 was divided by the number of NKT cells on day 0.

[6] = tested on: INF-γ and IL-4; conditions: in vitro; cited from earlier work
[7] = tested on: tetanus toxoid; test: Antibody (IgG) response to tetanus toxoid immunization, tetanus toxoid specific ELISA; assay type: in vivo; conditions: mice, IM day 0 and day 15, 10 μg TT with 1 μg PBS57 versus TT alone, blood day 0, 15 and 30 (FIG. 14)
Experimental: IgG titers were determined by standard methods from blood samples drawn on day 0, 15 and 30. The antibody titer was determined by tetanus toxoid specific ELISA.

[8] = tested on: Ova-specific CD8+ T cells; test: H2Kb-SIINFEKL pentamer staining of CD8+ T cells in blood after immunization with Ova; assay type: in vivo, C57/B1/6J CD45.2 female mice
Experimental: A mouse model was used to test the in vivo specific T cell response (CD8+) elicited by PBS57 in combination with antigen. C57/B1/6J CD45.2 female mice were immunized intramuscularly on day 0 and 14 with antigen (Ovalbumin, Ova, grade VII, Sigma, St. Louis, Mo.) with or without adjuvant, adjuvant alone, or carrier alone (control) in a total of 100 μl PBS carrier. Test adjuvant was 1 μg PBS57 with or without 50 μg Ova. Each group included at least three mice. Blood was collected from each mouse at day 21 and isolated cells were subjected to pentamer staining with H2K^b-SIINFEKL pentamers after blocking the Fc receptor. FACS analysis was performed including only CD8+ cells in the analysis (CD19+ cells were excluded from the analysis to exclude any B cells). […] The results are reported as mean+/−standard deviation of H2K^b-SIINFEKL specific CD8+ T cells in the blood.
A mouse model was used to test the in vivo specific T cell response (CD8+) elicited by PBS57 in combination with antigen as compared to that of αGalCer. C57/B1/6J CD45.2 female mice were immunized subcutaneously on day 0 and 14 with antigen (Ovalbumin, Ova, grade VII, Sigma, St. Louis, Mo.) with or without adjuvant, adjuvant alone, or carrier alone (control) in a total of 100 μl PBS carrier. Test adjuvant was 1 μg PBS57 or αGalCer with or without 50 μg Ova. Each group included at least three mice. […]

CCCCCCCCCCCCCCCCCCCCCCCCCC(=O)N[C@@H](COC1OC(CO)C(O)C(O)C1O)[C@H](O)[C@H](O)CCCCCCCCCCCCCC (stereo partly drawn) [αGalCer, α-galactosyceramide, reference compound]
percentage of NKT cells in the CD3+ population [1]: expansion of NKT cells | decrease of both subsets of DCs (CD11c+CD8α− and CD11c+CD8α+) compared to the control [2]: 50% | percentage of CD40+, CD80+ and CD86+ expressing cells in both the CD11c+CD8α− and CD11c+CD8α+ populations [2]: substantially increased | percentage of TCRαβ cells in the spleen [3]: increase in percentage of TCRαβ cells | percentage of NKT cells within the TCRαβ population in the spleen [3]: decrease in percentage of NKT cells | specific lysis of Ova-specific target cells in the blood, IM versus IV [4]: did not induce a cytotoxic response when injected intramuscularly | specific lysis of Ova-specific target cells in the blood, intramuscular immunization [4]: not able to generate a specific cytotoxic T cell response; also recorded: can only elicit a cytotoxic response when injected intravenously | specific lysis of Ova-specific target cells in the blood, intravenous immunization ([4]; IV): dose dependent specific cytotoxic effect; also recorded: elicited a cytotoxic response when injected intravenously at 1 μg-10 ng

CCCCCCCCC=CCCCCCCCCCCCCCC(=O)N[C@@H](OC1OC(CNC(C)=O)C(O)C(O)C1O)C(O)[C@H](O)CCCCCCCCCCCCCC (stereo partly drawn) [PBS57]
percentage of NKT cells in the CD3+ population [1]: expansion of NKT cells | increase in NKT cells over cells treated with αGalCer ([1]; separate experiment, PBL of two healthy donors, 1, 10 and 100 ng/ml, day 7 (FIG. 2)): at least a two fold increase | decrease of both subsets of DCs (CD11c+CD8α− and CD11c+CD8α+) compared to the control [2]: 50% | percentage of CD40+, CD80+ and CD86+ expressing cells in both the CD11c+CD8α− and CD11c+CD8α+ populations [2]: substantially increased | increase in NKT cells (number on day 7 divided by number on day 0) [5]: substantial increase in NKT cells | release of INF-γ and IL-4 [6]: induce the release of the INF-γ and IL-4 | antibody (IgG) titer to tetanus toxoid [7]: enhanced the antibody response to TT | percentage of TCRαβ cells in the spleen [3]: increase in percentage of TCRαβ cells | percentage of NKT cells within the TCRαβ population in the spleen [3]: decrease in percentage of NKT cells | H2Kb-SIINFEKL specific CD8+ T cells in the blood, intramuscular immunization ([8]; IM day 0 and 14, 1 μg PBS57 with 50 μg Ova, compared to Ova alone, blood day 21 (FIG. 15)): increase in Ova-specific CD8+ T cells | H2Kb-SIINFEKL specific CD8+ T cells in the blood, subcutaneous immunization ([8]; SC day 0 and 14, 1 μg PBS57 with 50 μg Ova, compared to Ova alone or αGalCer and Ova, blood day 21 (FIG. 16)): increase in Ova-specific CD8+ T cells | specific lysis of Ova-specific target cells in the spleen ([4]; 1 μg adjuvant with 50 μg Ova on day 0, target cells day 10, readout day 11 (FIG. 7)): produced cytotoxic lysis of Ova-specific target cells | specific lysis of Ova-specific target cells in the blood, IM versus IV [4]: caused a cytotoxic response regardless of the route of administration | specific lysis of Ova-specific target cells in the blood, intramuscular immunization [4]: can elicit a specific cytotoxic response when injected both intravenously and intramuscularly | specific lysis of Ova-specific target cells, varying Ova dose ([4]; IV, 1 μg PBS57 with 50 μg to 10 pg Ova, readout day 11 (FIG. 10)): dependent on antigen concentration | specific lysis of Ova-specific target cells in the blood, intravenous immunization ([4]; IV): dose-dependent specific cytotoxic effect
